Assays:
[1] = tested on: NIH Swiss mice fed a high-fat diet for 150 days; test: Acute and delayed i.p. glucose tolerance test, blood glucose and plasma insulin; format: in vivo; settings: fatty acid derived agonists
Procedure, shortened: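 Diet-induced obese-diabetic mice (high-fat diet 150 days, 18 h fasted) received i.p. glucose (18 mmol/kg) alone or with apelin analogues (25 nmol/kg), or analogues given 2, 8 or 16 h beforehand. Tail blood glucose and plasma insulin sampled at 0, 15, 30, 60, 105 min; n=8, mean±SEM.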

[2] = Degradation of apelin peptides by plasma from fasted normal NIH Swiss mice (rp-HPLC, MALDI-TOF MS); format: in vitro ADME
Procedure, shortened: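 Apelin peptides were incubated with plasma from fasted normal NIH Swiss mice for 4 h, and the reaction was stopped with TFA. Products were separated by C-8 rp-HPLC with detection at 214 nm. Peak fractions were identified by MALDI-TOF MS, giving fragment molecular weights and retention times.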

[3] = 16 h delayed i.p. glucose tolerance test, 25 nmol/kg
[4] = acute i.p. glucose tolerance test, 25 nmol/kg
[5] = NIH Swiss, mouse, plasma, pH 7.4

- Rank order of stability [2]: =1
- Half-life (t1/2) ([2]; NIH Swiss, mouse, plasma, 263 µg/mL, pH 7.4): >24 h
- half-life at 263 µg/mL [2, 5]: > 24 h
- remaining at 4 h, 263 µg/mL [2, 5]: 100%
Structure (SMILES): CCCCCCCCCCCCCCCC(=O)N[C@@H](CCC(=O)NCCCC[C@H](NC(=O)[C@H](Cc1c[nH]cn1)NC(=O)[C@H](CO)NC(=O)[C@H](CC(C)C)NC(=O)[C@H](CCCNC(=N)N)NC(=O)[C@@H]1CCCN1C(=O)[C@H](CCCNC(=N)N)NC(=O)[C@@H]1CCC(=O)N1)C(=O)NCC(=O)N1CCC[C@H]1C(=O)N[C@@H](CCSC)C(=O)N1CCC[C@H]1C(=O)N[C@@H](Cc1ccccc1)C(N)=O)C(=O)O [pGlu(Lys^8GluPAL)apelin-13-amide]
- Rank order on basis of anti-hyperglycaemic efficacy ([1]; 16 h delay): 1
- Blood glucose as percent of glucose-alone control (lower = stronger glucose lowering) [1, 3]: 57% (**)
- Insulin secretion, where glucose alone = 100% [1, 3]: 150% (***)
- Rank order on basis of anti-hyperglycaemic efficacy ([1]; acute): 1
- Glucose lowering, where glucose alone = 100% [1, 4]: 79%
- Insulin secretion, where glucose alone = 100% [1, 4]: 119% (*)

Reference: patent US10118954B2, “Apelin analogues” (University of Ulster, priority 2014, dated 2018)
